Assays:
[1] = system: HCT116 MTAP null cells; assay: HCT116 proliferation assay, MTAP null cells (CellTiter-Glo, 6 days); format: cell-based; conditions: HCT116-MTAP null, 144 h, read-out: Protif_ HCT116-MTAP null IC50
Summary of the method: (§1)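 RPMI 1640/10% FBS; overnight attachment at 37° C, 5% CO2; 8–9-pt 1:3 titration, top 1 or 10 µM; DMSO ctrl; luminescence readout.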

[2] = system: HCT116 WT cells; assay: HCT116 proliferation assay, WT cells (CellTiter-Glo, 6 days); format: cell-based; conditions: Homo sapiens, HCT-116, 144 h, read-out: Prolif_HCT116-WT IC50
Summary of the method: as §1

[3] = target: PRMT5/MEP50 (Homo sapiens, UniProt O14744); assay: MTase-Glo methyl transferase assay, Method A (Histone H4 peptide, 1 µM MTA, 24 h pre-incubation); format: biochemical; set-up: made in house; conditions: read-out: PRMT5 MTase Glo Ki (nM, Meth. A)
Method: Method A: The PRMT5 inhibitory activity of test compounds was determined using the MTase-Glo™ assay (Promega), which monitors the product (S-adenosyl homocysteine or SAH) of methyltransferase reactions. The PRMT5 MTase-Glo assay was conducted in a 384-well white ProxiPlate (PerkinElmer) in a total volume of 12 µL. The PRMT5 enzymatic reaction (in 4 µL) contained 10 nM PRMT5/MEP50 (produced at Amgen), 5 µM S-adenosyl methionine (SAM, Promega), 1 µM Histone H4 (1-21)-Lys(Biotin) (Anaspec), 1 µM 5′-methylthioadenosine (MTA, Sigma) and two-fold serially diluted compounds in a reaction buffer of 50 mM Tris (pH 8.0), 50 mM NaCl, 0.01% Tween 20, 0.01% BSA, and 1 mM DTT. Test compounds were pre-incubated with PRMT5/MEP50, SAM, and MTA for 24 hours before addition of Histone H4 peptide to initiate the PRMT5 reaction. The reaction was allowed to proceed for 2 hours at room temperature and was then terminated by addition of 2 µL of 3X MTase-Glo™ Reagent (Promega) and 150 µM EPZ015666 (Sigma). After a 30-minute incubation at room temperature, 6 µL of MTase-Glo™ Detection Solution (Promega) was added and the plate was incubated at room temperature for an additional 30 minutes. The light signal corresponding to the amount of SAH produced by the PRMT5 reaction was subsequently measured using an Envision multimode reader (PerkinElmer). IC50 and KI values were obtained by analyzing dose-response curves using Genedata Screener (Genedata).

PRMT5/MEP50, sequence (O14744 whole entry): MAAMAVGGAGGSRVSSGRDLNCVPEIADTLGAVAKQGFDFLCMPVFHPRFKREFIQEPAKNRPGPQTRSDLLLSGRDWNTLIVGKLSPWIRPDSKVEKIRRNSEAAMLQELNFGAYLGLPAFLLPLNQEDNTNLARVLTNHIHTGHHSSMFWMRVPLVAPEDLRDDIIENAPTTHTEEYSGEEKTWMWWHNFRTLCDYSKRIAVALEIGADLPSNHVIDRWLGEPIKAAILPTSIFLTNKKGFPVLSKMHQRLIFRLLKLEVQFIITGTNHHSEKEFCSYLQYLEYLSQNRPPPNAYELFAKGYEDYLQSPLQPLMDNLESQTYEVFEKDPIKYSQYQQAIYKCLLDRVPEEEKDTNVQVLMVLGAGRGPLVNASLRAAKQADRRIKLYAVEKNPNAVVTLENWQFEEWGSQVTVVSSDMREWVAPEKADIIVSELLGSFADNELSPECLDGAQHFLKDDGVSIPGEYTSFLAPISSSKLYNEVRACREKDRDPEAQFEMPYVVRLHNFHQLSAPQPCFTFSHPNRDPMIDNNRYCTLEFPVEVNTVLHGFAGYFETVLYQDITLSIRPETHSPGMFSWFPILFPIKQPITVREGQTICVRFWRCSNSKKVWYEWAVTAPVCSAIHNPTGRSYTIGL
PRMT5/MEP50, sequence (Q9BQA1 whole entry partner): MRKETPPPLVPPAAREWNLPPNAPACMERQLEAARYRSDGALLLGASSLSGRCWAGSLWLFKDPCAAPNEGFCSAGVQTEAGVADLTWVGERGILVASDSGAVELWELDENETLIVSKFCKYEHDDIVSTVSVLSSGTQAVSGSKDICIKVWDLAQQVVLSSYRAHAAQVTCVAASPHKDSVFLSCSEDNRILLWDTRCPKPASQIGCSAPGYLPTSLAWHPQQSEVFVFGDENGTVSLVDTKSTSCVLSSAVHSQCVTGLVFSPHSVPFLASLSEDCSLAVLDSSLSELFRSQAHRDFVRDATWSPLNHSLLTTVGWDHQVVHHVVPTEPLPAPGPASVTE

Row | Compound | IC50 [1] | IC50 [2] | Ki [3]
1 | Cc1cc2cc(C(=O)N(Cc3ccc(N4CCOCC4)nn3)[C@H](C)c3ncccn3)ccc2nc1N [Example 555, (R)-2-amino-3-methyl-N-((6-morpholinopyridazin-3-yl)methyl)-N-(1-(pyrimidin-2-yl)ethyl)quinoline-6-carboxamide] | 125 nM | 3820 nM | 0.07 nM
2 | Cc1cc2cc(C(=O)N(Cc3ccc(C#N)cn3)[C@@H](c3ncccn3)C3CC3)c(F)cc2nc1N [Example 421, 2-amino-N-((5-cyano-2-pyridinyl)methyl)-N-((R)-cyclopropyl(2-pyrimidinyl)methyl)-7-fluoro-3-methyl-6-quinolinecarboxamide] | 56 nM | 1130 nM | 0.54 nM
3 | Cc1cc2cc(C(=O)N(Cc3cnc(C(F)(F)F)cn3)[C@H](C)c3ccc(F)cn3)ccc2nc1N (single isomer, unassigned) [Example 483] | 515 nM | > 10000 nM | 1.02 nM
4 | Cc1cc2cc(C(=O)N(Cc3ccc(C(F)(F)F)cn3)Cc3cccc4[nH]ncc34)ccc2nc1N [Example 371, 2-amino-N-(1H-indazol-4-ylmethyl)-3-methyl-N-((5-(trifluoromethyl)-2-pyridinyl)methyl)-6-quinolinecarboxamide] | 69 nM | 1390 nM | 0.01 nM
5 | C[C@H](c1ncccn1)N(Cc1ccc(C(F)F)cn1)C(=O)c1cnc2nc(N)c(Br)cc2c1 [Example 407, 7-amino-6-bromo-N-((5-(difluoromethyl)-2-pyridinyl)methyl)-N-((1R)-1-(2-pyrimidinyl)ethyl)-1,8-naphthyridine-3-carboxamide] | 291 nM | > 10000 nM | 0.11 nM
6 | N#Cc1ccc(CN(C(=O)c2cnc3nc(N)c(Br)cc3c2)[C@@H](c2ncccn2)C2CC2)nc1 [Example 425, (R)-7-amino-6-bromo-N-((5-cyanopyridin-2-yl)methyl)-N-(cyclopropyl(pyrimidin-2-yl)methyl)-1,8-naphthyridine-3-carboxamide] | 380 nM | 2170 nM | 0.68 nM
7 | Cc1cc2cc(C(=O)N(Cc3ccc(C(F)(F)F)cn3)[C@@H](c3ncccn3)C3CC3)cnc2nc1N [Example 372, 7-amino-N-((R)-cyclopropyl(2-pyrimidinyl)methyl)-6-methyl-N-((5-(trifluoromethyl)-2-pyridinyl)methyl)-1,8-naphthyridine-3-carboxamide] | 124 nM | 2410 nM | 0.33 nM
8 | C[C@H](c1ncccc1F)N(Cc1ccc(C#N)cn1)C(=O)c1ccc2nc(N)c(Br)cc2c1 [Example 352, 2-amino-3-bromo-N-((5-cyano-2-pyridinyl)methyl)-N-((1R)-1-(3-fluoro-2-pyridinyl)ethyl)-6-quinolinecarboxamide] | 200 nM | 8090 nM | 0.14 nM
9 | Cc1cc2cc(C(=O)N(Cc3ccc(C(F)(F)F)cn3)Cc3cnc(N)s3)ccc2nc1N [Example 305, 2-amino-N-((2-amino-1,3-thiazol-5-yl)methyl)-3-methyl-N-((5-(trifluoromethyl)-2-pyridinyl)methyl)-6-quinolinecarboxamide] | 268 nM | 8770 nM | 15.1 nM
10 | Cc1cc2cc(C(=O)N(Cc3ccc(C(F)(F)F)cn3)[C@H](C)c3ncccn3)ncc2nc1N [Example 374, 2-amino-3-methyl-N-((1R)-1-(2-pyrimidinyl)ethyl)-N-((5-(trifluoromethyl)-2-pyridinyl)methyl)-1,7-naphthyridine-6-carboxamide] | 341 nM | 8570 nM | 0.48 nM
11 | C[C@H](c1ncccn1)N(Cc1ccc(Br)nn1)C(=O)c1ccc2nc(N)c(Cl)cc2c1 [Example 348, 2-amino-N-((6-bromo-3-pyridazinyl)methyl)-3-chloro-N-((1R)-1-(2-pyrimidinyl)ethyl)-6-quinolinecarboxamide] | 413 nM | > 10000 nM | 0.73 nM
12 | Cc1cc2cc(C(=O)N(Cc3ccc(C(F)(F)F)cn3)CC(C)C)c(Cl)cc2nc1N [Example 436, 2-amino-7-chloro-3-methyl-N-(2-methylpropyl)-N-((5-(trifluoromethyl)-2-pyridinyl)methyl)-6-quinolinecarboxamide] | 198 nM | 3720 nM | 0.14 nM
13 | Cc1cc2cc(C(=O)N(Cc3ccc(C(F)(F)F)nc3)Cc3ncccc3F)ccc2nc1N [Example 322, 2-amino-N-((3-fluoro-2-pyridinyl)methyl)-3-methyl-N-((6-(trifluoromethyl)-3-pyridinyl)methyl)-6-quinolinecarboxamide] | 385 nM | > 10000 nM | 1.09 nM
14 | Cc1cc2cc(C(=O)N(Cc3ccc(C(F)(F)F)cn3)[C@H](C)c3ncccn3)c(F)cc2nc1N [Example 429, 2-amino-7-fluoro-3-methyl-N-((1R)-1-(2-pyrimidinyl)ethyl)-N-((5-(trifluoromethyl)-2-pyridinyl)methyl)-6-quinolinecarboxamide] | 39 nM | 607 nM | 0.91 nM
15 | Cc1cc2cc(C(=O)N(Cc3ncccc3F)Cc3ncc(F)cc3F)ccc2nc1N [Example 387, 2-amino-N-((3,5-difluoro-2-pyridinyl)methyl)-N-((3-fluoro-2-pyridinyl)methyl)-3-methyl-6-quinolinecarboxamide] | 884 nM | > 10000 nM | 1.67 nM
16 | Cc1cc2cc(C(=O)N(Cc3cnc(C#N)cn3)[C@H](C)c3ncccn3)ccc2nc1N [Example 553, 2-amino-N-((5-cyano-2-pyrazinyl)methyl)-3-methyl-N-((1R)-1-(2-pyrimidinyl)ethyl)-6-quinolinecarboxamide] | 454 nM | > 10000 nM | 0.36 nM
17 | Cc1cc2cc(C(=O)N(Cc3ccc(C(F)(F)F)nn3)[C@H](C)c3ncccc3F)ccc2nc1N [Example 510, 2-amino-N-((1R)-1-(3-fluoro-2-pyridinyl)ethyl)-3-methyl-N-((6-(trifluoromethyl)-3-pyridazinyl)methyl)-6-quinolinecarboxamide] | 70 nM | 1910 nM | 0.32 nM
18 | Cc1cc2cc(C(=O)N(Cc3ccc(C(F)(F)F)cn3)Cc3cnccn3)ccc2nc1N [Example 336, 2-amino-3-methyl-N-(2-pyrazinylmethyl)-N-((5-(trifluoromethyl)-2-pyridinyl)methyl)-6-quinolinecarboxamide] | 400 nM | > 10000 nM | 0.47 nM
19 | Cc1cc2cc(C(=O)N(Cc3ccc(C(F)(F)F)cn3)[C@H](C)c3ccc(F)cc3)ccc2nc1N [Example 360, 2-amino-N-((1R)-1-(4-fluorophenyl)ethyl)-3-methyl-N-((5-(trifluoromethyl)-2-pyridinyl)methyl)-6-quinolinecarboxamide] | 199 nM | 4810 nM | 0.08 nM
20 | Cc1cc2cc(C(=O)N(Cc3ccc(C(F)(F)F)cn3)[C@@H]3CCOc4ccc(F)nc43)ccc2nc1N (single isomer, unassigned) [Example 451] | 13 nM | 232 nM | 0.02 nM
21 | Cc1cnc(CN(Cc2ccc(C(F)(F)F)cn2)C(=O)c2ccc3nc(N)c(C)cc3c2)cn1 [Example 337, 2-amino-3-methyl-N-((5-methyl-2-pyrazinyl)methyl)-N-((5-(trifluoromethyl)-2-pyridinyl)methyl)-6-quinolinecarboxamide] | 434 nM | > 10000 nM | 0.39 nM
22 | Cc1cc2cc(C(=O)N(Cc3ccc(Cl)cn3)[C@H](C)c3ncccc3F)ccc2nc1N [Example 401, 2-amino-N-((5-chloro-2-pyridinyl)methyl)-N-((1R)-1-(3-fluoro-2-pyridinyl)ethyl)-3-methyl-6-quinolinecarboxamide] | 51 nM | 1570 nM | 0.08 nM
23 | Cc1cc2cc(C(=O)N(Cc3ccc(Cl)c(C)n3)[C@H](C)c3ncccn3)ccc2nc1N (single isomer, unassigned) [Example 468] | 34 nM | 853 nM | < 0.1 nM
24 | C[C@H](c1ncccn1)N(Cc1ccc(C#N)cn1)C(=O)c1ccc2nc(N)c(Br)cc2c1 [Example 417, 2-amino-3-bromo-N-((5-cyano-2-pyridinyl)methyl)-N-((1R)-1-(2-pyrimidinyl)ethyl)-6-quinolinecarboxamide] | 151 nM | > 10000 nM | 0.33 nM
25 | C[C@H](c1ncccn1)N(Cc1ccc(C(F)(F)F)cn1)C(=O)c1ccc2nc(N)cc(Cl)c2c1 [Example 433, 2-amino-4-chloro-N-((1R)-1-(2-pyrimidinyl)ethyl)-N-((5-(trifluoromethyl)-2-pyridinyl)methyl)-6-quinolinecarboxamide] | 821 nM | 1170 nM | 1.26 nM
